# According to patent US20240342111A1, “ISOMER-SPECIFIC NEUROPROTECTIVE EFFECT OF NATURAL RESERVATROL” (priority 2021, published 2024):
# How the values were obtained:
# [1] = tested on: TyrRS; test: Immunostaining of neuronal TyrRS under neurotoxic agents (NMDA, MPP+); format: cell-based, rat; details: neurotoxic agent alone (50 μM NMDA, 100 μM MPP+), 4 hours
# [2] = target: T1, TyrRS (Homo sapiens, UniProt P54577); details: low dose ≤5 μM, HeLa cells; cited from earlier work
# T1 construct: host or cells: HeLa cells
# T1 sequence (P54577 whole entry): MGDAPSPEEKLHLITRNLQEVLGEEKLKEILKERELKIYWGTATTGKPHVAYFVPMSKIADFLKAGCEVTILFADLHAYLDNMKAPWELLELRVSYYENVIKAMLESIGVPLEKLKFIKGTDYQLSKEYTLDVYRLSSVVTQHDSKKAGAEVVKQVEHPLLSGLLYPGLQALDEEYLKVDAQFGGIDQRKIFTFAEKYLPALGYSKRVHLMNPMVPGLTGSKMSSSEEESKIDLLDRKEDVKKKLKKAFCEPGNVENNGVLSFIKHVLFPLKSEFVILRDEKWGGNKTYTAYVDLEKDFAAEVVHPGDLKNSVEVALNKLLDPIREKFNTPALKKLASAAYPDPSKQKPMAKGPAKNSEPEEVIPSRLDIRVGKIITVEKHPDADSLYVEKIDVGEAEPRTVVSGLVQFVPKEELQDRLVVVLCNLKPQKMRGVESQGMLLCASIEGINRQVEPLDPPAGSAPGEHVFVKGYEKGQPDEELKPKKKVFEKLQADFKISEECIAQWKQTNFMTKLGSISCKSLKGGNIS
# [3] = tested on: ataxia telangiectasia mutated (ATM) kinase; details: low dose 5 μM; cited from earlier work
# [4] = target: T2, TyrRS (Rattus norvegicus, UniProt Q4KM49); test: Immunostaining of neuronal TyrRS, RSV alone or in combination with Aβ; format: cell-based; details: Aβ 50 nM alone, 16 hours
# T2 construct: Primary cortical neuron cultures were obtained from E18 Sprague Dawley rats' cortices; endogenous in cells; host or cells: rat primary cortical neurons (E18 Sprague Dawley)
# T2 sequence (Q4KM49 1-528): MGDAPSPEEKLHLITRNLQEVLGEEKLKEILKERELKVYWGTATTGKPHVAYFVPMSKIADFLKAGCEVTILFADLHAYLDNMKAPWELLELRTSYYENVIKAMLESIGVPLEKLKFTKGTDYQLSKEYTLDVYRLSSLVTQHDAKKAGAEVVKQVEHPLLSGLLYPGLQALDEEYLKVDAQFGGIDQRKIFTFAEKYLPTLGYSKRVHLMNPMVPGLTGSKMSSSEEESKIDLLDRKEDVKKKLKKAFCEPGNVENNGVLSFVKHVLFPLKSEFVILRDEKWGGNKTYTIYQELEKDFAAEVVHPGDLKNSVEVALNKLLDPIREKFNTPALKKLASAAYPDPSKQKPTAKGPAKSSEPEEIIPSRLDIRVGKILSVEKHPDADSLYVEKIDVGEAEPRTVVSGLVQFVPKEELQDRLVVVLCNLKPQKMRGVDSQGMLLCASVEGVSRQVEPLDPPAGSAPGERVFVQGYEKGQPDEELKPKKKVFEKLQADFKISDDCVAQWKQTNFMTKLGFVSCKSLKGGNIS
# [5] = tested on: TyrRS; test: Immunoblot for TyrRS after treatment with Aβ42; format: cell-based, rat; details: different doses of Aβ42, 24 hours
# Description: (§1) Representative immunostaining images (scale bar, 20 μm) for neuronal TyrRS (spectral images) after treatment with neurotoxic agents result in TyrRS downregulation. […] The protein level of TyrRS was quantified by measuring the average intensity of fluorescence staining with regions defined by MAP2 (neurite marker) staining across n=3 experiments using n≥20 neurons for quantification per treatment condition. […] Rat cortical neurons (DIV 9) were treated with different doses of Aβ42 for 24 hours. All graphical representations depict mean±SEM from n=3 experiments with statistical significance calculated using paired Student's t-test.
# (§2) Cultured neurons (DIV 9-10) were washed once with cold 1×PBS and lysed in cell lysis buffer (20 mM Tris-HCl (pH 7.5), 150 mM NaCl, 1 mM Na2EDTA, 1 mM EGTA, 1% Triton, 2.5 mM sodium pyrophosphate, 1 mM beta-glycerophosphate, 1 mM Na3VO4, 1 μg/ml leupeptin supplemented with protease inhibitor). The lysates were centrifuged at 10,000 RPM for 15 minutes at 4° C. to separate the chromatin-bound and soluble fractions. Lysates were quantified using Bio-Rad Protein Assay, and an equal amount of protein was loaded onto a 4 to 12% gradient gel (NuPAGE-Invitrogen). […] Quantification for the western blots was done using ImageJ (Version 1.53c).
# [6] = tested on: phenyl-tRNA synthetase beta (PheRSβ); test: Immunoblot for PheRSβ after treatment with Aβ42; format: cell-based, rat; details: different doses of Aβ42, 24 hours
# Description: as §1, §2
# [7] = tested on: pSer10-H3; test: Immunostaining of pSer10-H3 (ADP-ribosylation dependent DNA repair marker); format: cell-based, rat; details: Aβ 50 nM, 24 hours
# Excerpt: Ac-K56-H3 is a marker of genomic stability, see Driscoll, R., Hudson, A. & Jackson, S. P. Yeast Rtt109 promotes genome stability by acetylating histone H3 on lysine 56. Science 315, 649-652, doi:10.1126/science.1135862 (2007), and DNA damage, see Tjeertes, J. V., Miller, K. M. & Jackson, S. P. Screen for DNA-damage-responsive histone modifications identifies H3K9Ac and H3K56Ac in human cells. EMBO J 28, 1878-1889, doi:10.1038/emboj.2009.119 (2009), and inhibition of PARP1 causes the downregulation of RAD51, see Hegan, D. C. et al. Inhibition of poly(ADP-ribose) polymerase down-regulates BRCA1 and RAD51 in a pathway mediated by E2F4 and p130. Proc Natl Acad Sci U S A 107, 2201-2206, doi:10.1073/pnas.0904783107 (2010), and induces neurotoxicity, see Diaz-Hernandez, J. I., Moncada, S., Bolanos, J. P. & Almeida, A. Poly(ADP-ribose) polymerase-1 protects neurons against apoptosis induced by oxidative stress. Cell Death Differ 14, 1211-1221, doi:10.1038/sj.cdd.4402117 (2007) and Midorikawa, R., Takei, Y. & Hirokawa, N. KIF4 motor regulates activity-dependent neuronal survival by suppressing PARP-1 enzymatic activity. Cell 125, 371-383, doi:10.1016/j.cell.2006.02.039 (2006). […] The western blot images of the protein levels of HPF1 was quantified using ImageJ.
# Coverslips were then mounted using DAPI (4′,6-diamidino-2-phenylindole)-supplemented mounting medium, Prolong Gold Antifade (Invitrogen) imaged with Leica DMI6000 epifluorescent microscope at 63×magnification.
compound,measurement,setting,value
"CN[C@H](CC(=O)O)C(=O)O [NMDA, N-Methyl-D-aspartate]",neuronal protein levels of TyrRS,[1],downregulate the neuronal protein levels of TyrRS
"Oc1ccc(C=Cc2cc(O)cc(O)c2)cc1 [RSV, Resveratrol]",protein levels of TyrRS,[2],upregulated the protein levels of TyrRS
same,ATM kinase activation,[3],activate
human amyloid β protein fragment 1-42 [Aβ],TyrRS protein levels,[4],downregulation
same,TyrRS protein level (immunoblot),[5],downregulates TyrRS in a dose-dependent manner
same,PheRSβ protein level (immunoblot),[6],did not downregulate
same,pSer10-H3 levels,[7],upregulation
"C[n+]1ccc(-c2ccccc2)cc1 [MPP^+, 1-methyl-4-phenylpyridinium]",neuronal protein levels of TyrRS,[1],downregulate the neuronal protein levels of TyrRS
